Data taken from article PMC10794137, “A new antibiotic traps lipopolysaccharide in its intermembrane transporter” (Nature, 2024).

What was measured:
[1] = molecular target: His-tagged LptB2FG (ablLptB2FG) in the presence of LPS (Acinetobacter baylyi, UniProt Q6FFD6+Q6FFD7); assay: biochemical; assay type: binding
Procedure: The binding of radioligand [^3H]-RO7223280 to ablLptB2FG and ablLptB2FGC was measured by bead-based SPA. All steps were performed in SEC buffer (20 mM Tris pH 7.5, 300 mM NaCl, 5% glycerol, 0.5 mM TCEP, 0.05% DDM ± 10 µM E.coli J5 LPS(Rc) […] (Enzo Life Sciences)) and at 4 °C unless otherwise indicated. Purified protein was first incubated with Copper PVT HIS-tag beads (Perkin Elmer) for 1.5 h under gentle rotation. Twelve radioligand concentrations were added to the PVT–protein mix and incubated for another 30 min. […] The SPA plates were sealed (TopSeal, Perkin Elmer) and stored at 4 °C overnight. Before the measurement, plates were mixed on a shaker for 20 min, 750 rpm at room temperature and the seal was thoroughly wiped with antistatic spray to reduce electrostatic events. Scintillation data were recorded with a Topcount NXT C384, in the form of three independent replicates each consisting of three technical triplicates. Specific binding was calculated by subtracting non-specific binding raw counts from total binding raw counts. The dissociation constant Kd and standard deviation of the three independent replicates are reported and were calculated by the GraphPad Prism ‘One site – specific binding’ tool.
Displacement values were normalized by including nine wells containing […] (defined as 100% competition) and nine wells containing 8 uM radioligand only (defined as 0% competition). […] The Hill coefficient was used as a quality control metric (theoretically, nH = 1 for a 1:1 competitive inhibitor) and determined with the ‘[Inhibitor] vs. response -- Variable slope (four parameters)’ tool.

[2] = test system: LptB2FGΔTM-LptC; assay: LPS release assay, LptB2FG-ΔTM-C; assay type: biochemical, Acinetobacter baylyi; conditions: complex lacking LptC TM helix
Procedure: (§1) Proteoliposomes were prepared as described previously. Aqueous E. coli polar lipid extract (Avanti Polar Lipids) (30 mg ml^−1) and aqueous LPS from E. coli EH100 (Ra mutant; Sigma) (2 mg ml^−1) were sonicated briefly for homogenization. For experiments testing the effect of LPS structure, we used LPS isolated from either GKM374 (BL21DE3 eptA::catR arnA::kanR eptC::gentR) or TXM418 (BL21DE3 eptA::catR arnA::FRT eptB::gentR lpxM::kanR) as described previously. A mixture of 20 mM Tris-HCl (pH 8.0), 150 mM NaCl, 7.5 mg ml^−1 of E. coli polar lipids, 0.5 mg ml^−1 of LPS and 0.25% DDM was prepared and kept on ice for 10 min. Purified LptB2FGC or LptB2FG was added to a final concentration of 0.86 μM and the mixture was left on ice for 20 min. The mixture was diluted 100-fold with cold 20 mM Tris-HCl (pH 8.0) and 150 mM NaCl and kept on ice for 20 min. The proteoliposomes were pelleted (300,000g, 2 h, 4 °C), resuspended in 20 mM Tris-HCl (pH 8.0) and 150 mM NaCl, diluted 100× and centrifuged (300,000g, 2 h, 4 °C). The pellets were resuspended in a mixture of 20 mM Tris-HCl (pH 8.0), 150 mM NaCl and 10% glycerol (250 μl per 100 μl of the original predilution solution), homogenized by sonication, flash frozen and stored at −80 °C until use.
LptC(ΔTM) was purified largely as previously described. Briefly, Bl21 (λDE3) E. coli cells containing pET22/42-LptC(ΔTM)-His7 were grown to an OD600 of approximately 0.6 at 37 °C in LB media containing 50 μg ml^−1 of carbenicillin. Cells were then induced with 50 μM IPTG; allowed to grow for 2 h; harvested and resuspended in lysis buffer (50 mM Tris pH 7.4, 300 mM NaCl, 0.1 mM EDTA). Lysozyme, DNaseI and PMSF were added to final concentrations of 100 µg ml^−1, 50 µg ml^−1 and 1 mM, respectively. Cells were homogenized and subjected to passage through an EmulsiFlex-C3 high-pressure cell disruptor three times. The cell lysate was centrifuged (10,000g, 10 min) and the supernatant was further centrifuged (100,000g, 1 h). […]
The amounts of release of LPS from proteoliposomes to LptA were measured as previously described. […]

[3] = test system: LptB2FG; assay: ATPase assay (molybdate), LptB2FG proteoliposomes; assay type: biochemical, Acinetobacter baylyi; conditions: LptB2FG liposomes, in presence of LPS
Procedure: as §1
ATPase assays were done using a modified molybdate method, as previously reported, with slight modifications. Assays used 30% proteoliposomes (by volume) in a mixture containing 50 mM Tris-HCl (pH 8.0), 500 mM NaCl, 10% glycerol and 2 mM MgCl2. Proteoliposome-containing reaction mixture was incubated with drug at room temperature for 10 min, as applicable. Reactions were initiated by the addition of ATP to a final concentration of 5 mM and run at 30 °C. Aliquots (5 µl) were taken at 0, 15, 30 and 45 min. […] The amounts of Pi were determined using a colorimetric method and potassium phosphate was used as a standard. […] The absorbance at 850 nm was measured using a Spectramax Plus 384 (Molecular Devices) after 20 min. Error bars indicate the standard deviations of the average rates measured over three biological replicates.

[4] = test system: LptB2FGC; assay: ATPase assay (molybdate), LptB2FGC proteoliposomes; assay type: biochemical, Acinetobacter baylyi; conditions: for Effect on ATPase activity: LptB2FGC liposomes, in presence of LPS
Procedure: as §1
ATPase assays were done using a modified molybdate method, as previously reported, with slight modifications. Assays used 30% proteoliposomes (by volume) in a mixture containing 50 mM Tris-HCl (pH 8.0), 500 mM NaCl, 10% glycerol and 2 mM MgCl2. Proteoliposome-containing reaction mixture was incubated with drug at room temperature for 10 min, as applicable. Reactions were initiated by the addition of ATP to a final concentration of 5 mM and run at 30 °C. Aliquots (5 µl) were taken at 0, 15, 30 and 45 min. Reactions were quenched with an equal volume of 12% SDS. The amounts of Pi were determined using a colorimetric method and potassium phosphate was used as a standard. Reagents were obtained from Sigma-Aldrich. After the addition of SDS, a mixture containing 10 µl of 30 mg ml^−1 of ascorbic acid, 0.5 N HCl, 5 mg ml^−1 of ammonium molybdate and 6% SDS was added. The samples were incubated at room temperature for 7 min and 15 µl of an aqueous solution containing 20 mg ml^−1 of sodium citrate tribasic dihydrate, 2 mg ml^−^1 of sodium arsenite and 2% (vol/vol) acetic acid was added. The absorbance at 850 nm was measured using a Spectramax Plus 384 (Molecular Devices) after 20 min. Error bars indicate the standard deviations of the average rates measured over three biological replicates.

[5] = test system: LptB2FG-ΔTM-C; assay: ATPase assay (molybdate), LptB2FG-ΔTM-C proteoliposomes; assay type: biochemical, Acinetobacter baylyi; conditions: LptB2FG-ΔTM-C liposomes, in presence of LPS

Chain of His-tagged LptB2FG (ablLptB2FG) in the presence of LPS (Q6FFD6 entry or part of it): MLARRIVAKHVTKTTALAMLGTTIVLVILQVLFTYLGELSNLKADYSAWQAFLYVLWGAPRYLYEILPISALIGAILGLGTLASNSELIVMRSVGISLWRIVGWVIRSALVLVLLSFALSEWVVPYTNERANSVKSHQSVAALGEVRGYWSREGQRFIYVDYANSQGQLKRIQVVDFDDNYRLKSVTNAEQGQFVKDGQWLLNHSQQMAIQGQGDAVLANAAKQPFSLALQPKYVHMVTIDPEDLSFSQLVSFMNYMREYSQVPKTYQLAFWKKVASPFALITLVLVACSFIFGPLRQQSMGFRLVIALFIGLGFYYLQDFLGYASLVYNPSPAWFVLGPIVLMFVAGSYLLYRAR
Chain of His-tagged LptB2FG (ablLptB2FG) in the presence of LPS (Q6FC66 entry or part of it, further chain): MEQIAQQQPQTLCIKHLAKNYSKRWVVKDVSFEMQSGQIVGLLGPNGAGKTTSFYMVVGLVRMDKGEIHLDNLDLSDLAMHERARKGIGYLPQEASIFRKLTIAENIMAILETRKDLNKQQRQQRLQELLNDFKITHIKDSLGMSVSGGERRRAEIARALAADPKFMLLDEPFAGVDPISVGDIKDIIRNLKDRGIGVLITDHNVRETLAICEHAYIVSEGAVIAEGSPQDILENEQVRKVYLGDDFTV
Chain of His-tagged LptB2FG (ablLptB2FG) in the presence of LPS (Q6FFD7 entry or part of it): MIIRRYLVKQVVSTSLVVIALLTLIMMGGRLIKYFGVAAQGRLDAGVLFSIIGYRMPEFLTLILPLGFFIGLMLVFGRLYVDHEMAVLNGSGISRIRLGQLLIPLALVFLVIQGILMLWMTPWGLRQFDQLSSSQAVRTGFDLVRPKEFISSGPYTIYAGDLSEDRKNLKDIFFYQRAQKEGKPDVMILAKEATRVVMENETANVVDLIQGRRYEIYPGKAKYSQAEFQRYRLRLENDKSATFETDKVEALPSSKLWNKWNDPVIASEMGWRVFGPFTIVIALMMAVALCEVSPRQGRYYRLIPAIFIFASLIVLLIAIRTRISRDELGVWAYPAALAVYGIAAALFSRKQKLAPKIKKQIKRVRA

Row | SMILES | Ki [1] | Inhibition of LPS transport to LptA [2] | Effect on ATPase activity [3] | Effect on ATPase activity [4] | Effect on ATPase activity [5] | Effect on ATPase activity with ΔLpxM LPS ([4]; LptB2FGC liposomes with LPS isolated from a ΔLpxM strain)
1 | CN1C(=O)[C@H](CCCCN)NC(=O)[C@H](CCCN)NCc2cccnc2Sc2cccc(-c3ccc(C(=O)O)cc3)c2CNC(=O)[C@@H]1Cc1c[nH]c2ccccc12 [Compound 2, Zosurabalpin] | 35 nM | inhibited | increases the ATPase activity | increases the ATPase activity | increases the ATPase activity | 
2 | CN1C(=O)[C@H](CCCCN)NC(=O)[C@H](CCCN)NCc2cccnc2Sc2c(Cl)ccc(-c3ccc(N)nc3)c2CNC(=O)[C@@H]1Cc1c[nH]c2ccccc12 [Compound 1] | 35 nM | inhibited | increases the ATPase activity | increases the ATPase activity | increases the ATPase activity | resistant
3 | CN1C(=O)[C@H](CCCCN)NC(=O)[C@H](CCCN)NCc2cccnc2Sc2c(Cl)ccc(Cl)c2CNC(=O)[C@@H]1Cc1c[nH]c2ccccc12 [Compound 3] | 56 nM | inhibited | increases the ATPase activity | does not affect the ATPase | increases the ATPase activity | 
